# Measured values from patent publication US20030186947A1, “Compounds having activity as inhibitors of cytochrome P450RAI” (priority 2000, published 2003).
# Assays:
# Assay in all cases: chimeric receptor transactivation assay
# Type in all cases: cell-based
# Conditions in all cases: value in parentheses
# RARβ = biological target: T1, RARβ (Homo sapiens, UniProt P10826)
# T1 sequence (P10826 183-417 limits assumed): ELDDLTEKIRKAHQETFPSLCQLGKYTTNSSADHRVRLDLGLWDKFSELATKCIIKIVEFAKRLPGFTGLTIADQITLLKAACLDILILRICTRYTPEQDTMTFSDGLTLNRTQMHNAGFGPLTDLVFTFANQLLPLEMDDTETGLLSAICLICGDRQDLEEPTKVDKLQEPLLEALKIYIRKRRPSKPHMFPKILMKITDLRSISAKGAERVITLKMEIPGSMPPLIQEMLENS
# Source text: (§1) Assays described below measure the ability of a compound to bind to, and/or activate various retinoid receptor subtypes. When in these assays a compound binds to a given receptor subtype and activates the transcription of a reporter gene through that subtype, then the compound is considered an agonist of that receptor subtype. […] In the below described assays the ability of the compounds to bind to RARα, RARβ, RARγ, RXRα, RXRβ and RXRγ receptors, and the ability or inability of the compounds to activate transcription of a reporter gene through these receptor subtypes can be tested.
# (§2) As far as specific assays are concerned, a chimeric receptor transactivation assay which tests for agonist-like activity in the RARα, RARβ, and RARγ, receptor subtypes, and which is based on work published by Feigner P. L. and Holm M (1989) Focus, 112 is described in detail in U.S. Pat. No. 5,455,265. The specification of U.S. Pat. No. 5,455,265 is hereby expressly incorporated by reference.
# A holoreceptor transactivation assay and a ligand binding assay which measure the antagonist/agonist like activity of the compounds of the invention, or their ability to bind to the several retinoid receptor subtypes, respectively, are described in published PCT Application No. WO WO93/11755 (particularly on pages 30-33 and 37-41) published on Jun. 24, 1993, the specification of which is also incorporated herein by reference. […] The results obtained in this assay are expressed in EC50 numbers, as they are also in the chimeric receptor transactivation assay. The results of ligand binding assay are expressed in Kd numbers. (See Cheng et al. Biochemical Pharmacology Vol. 22 pp 3099-3108, expressly incorporated herein by reference.)
# RARα = biological target: T2, RARα (Homo sapiens, UniProt P10276)
# T2 sequence (P10276 183-417 limits assumed): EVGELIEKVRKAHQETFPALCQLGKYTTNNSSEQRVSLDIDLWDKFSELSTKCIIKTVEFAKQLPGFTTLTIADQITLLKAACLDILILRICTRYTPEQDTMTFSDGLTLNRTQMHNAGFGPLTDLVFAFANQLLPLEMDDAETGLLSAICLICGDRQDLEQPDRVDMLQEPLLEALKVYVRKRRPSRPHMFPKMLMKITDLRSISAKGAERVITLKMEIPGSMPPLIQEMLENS
# Source text: as §1
# as §2, with “reference. The numeric results obtained with several preferred compounds of this invention in this assay are shown below in Table 1.” for “reference.”
# (§3) A holoreceptor transactivation assay and a ligand binding assay which measure the antagonist/agonist like activity of the compounds of the invention, or their ability to bind to the several retinoid receptor subtypes, respectively, are described in published PCT Application No. WO WO93/11755 (particularly on pages 30-33 and 37-41) published on Jun. 24, 1993, the specification of which is also incorporated herein by reference. A detailed experimental procedure for holoreceptor transactivations has been described by Heyman et al. Cell 68, 397-406, (1992); Allegretto et al. J. Biol. Chem. 268, 26625-26633, and Mangelsdorf et al. The Retinoids: Biology, Chemistry and Medicine, pp 319-349, Raven Press Ltd., New York, which are expressly incorporated herein by reference. The results obtained in this assay are expressed in EC50 numbers, as they are also in the chimeric receptor transactivation assay. The results of ligand binding assay are expressed in Kd numbers. (See Cheng et al. Biochemical Pharmacology Vol. 22 pp 3099-3108, expressly incorporated herein by reference.)
# RARγ = biological target: T3, RARγ (Homo sapiens, UniProt P13631)
# T3 sequence (P13631 185-419 limits assumed): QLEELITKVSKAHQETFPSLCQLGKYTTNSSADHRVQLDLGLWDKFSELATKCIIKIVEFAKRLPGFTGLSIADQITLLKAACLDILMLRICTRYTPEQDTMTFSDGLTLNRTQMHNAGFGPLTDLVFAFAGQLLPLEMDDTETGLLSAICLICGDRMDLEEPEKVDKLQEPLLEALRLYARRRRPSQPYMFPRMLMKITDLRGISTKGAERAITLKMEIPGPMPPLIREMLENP
# Source text: as §1
# as §2, with “reference. The numeric results obtained with several preferred compounds of this invention in this assay are shown below in Table 1.” for “reference.”
# as §3
RAR (EFFICACY) β (RARβ),RAR (EFFICACY) α (RARα),RAR (EFFICACY) γ (RARγ),SMILES
(86),(146),(94),"CC1(C)CCC(=O)c2ccc(C#Cc3ccc(C(=O)O)c(F)c3)cc21 [Compound 10, 2-Fluoro-4-(8,8-dimethyl-5-oxo-5,6,7,8-tetrahydro-naphthalen-2yl-ethynyl)-benzoic acid]"
(80),–,(67),"Cc1cc(C#Cc2ccc(C(=O)O)cc2)ccc1C1(OCc2ccccc2)CC1 [Compound 81, 4-[4-(l -Benzyloxycyclopropyl)-3-methyl-phenylethynyl]-benzoic acid]"
(96),–,–,"CN(C1CC1)C1CCC(C)(C)c2cc(C#Cc3ccc(CC(=O)O)cc3)ccc21 (centres unmarked) [Compound 8, 4-[(5-(Cyclopropyl-methyl-amino)-8,8-dimethyl-5,6,7,8-tetrahydro-naphthalene-2-yl-ethynyl)-phenyl]-acetic acid]"
(54),(28),(52),"CN(C1CC1)C1CCC(C)(C)c2cc(C#Cc3ccc(C(=O)O)cc3)ccc21 (centres unmarked) [Compound 3, 4-[(5-Cyclopropyl-methyl-amino)-8,8-dimethyl-5,6,7,8-tetrahydro-naphthalene-2yl-ethynyl]-benzoic acid]"
(100),(138),(116),"CC1(C)CC2(CC2)Oc2ccc(C#Cc3ccc(C(=O)O)c(F)c3)cc21 [Compound 44, 2-Fluoro-benzoic acid, 4-[(3,4-dihydro-4,4-dimethylspiro[2H-1-benzopyran-2,1′-cyclopropane]-6-yl)ethynyl]-]"
(126),(207),(140),"CC1(C)CC2(CC2)Oc2ccc(C#Cc3ccc(C(=O)O)cc3)cc21 [Compound 40, Benzoic acid 4-[(3,4-dihydro-4,4-dimethylspiro[2H-1-benzopyran-2,1′-cyclopropane]-6-yl)ethynyl]-]"
(50),(10),(31),"COC1(c2ccc(C#Cc3ccc(C(=O)O)cc3)cc2)CC1 [Compound 69, 4-[4-(1-Methoxycyclopropyl)-phenylethynyl]-benzoic acid]"
(36),–,–,"CC1(C)CCC(=O)c2ccc(C#Cc3ccc(CC(=O)O)cc3)cc21 [Compound 5, 4-[(8,8-Dimethyl-5-oxo-5,6,7,8-tetrahydro-naphthalene-2-yl-ethynyl)-phenyl]-acetic acid]"
(77),(60),(65),"Cc1cc(C#Cc2ccc(C(=O)O)cc2)ccc1C1(OC(C)C)CC1 [Compound 85, 4-[4-(1-Isopropoxycyclopropyl)-3-methyl-phenylethynyl]-benzoic acid]"
(36),(15),(10),"CCCNC1(c2ccc(C#Cc3ccc(C(=O)O)cc3)cc2)CC1 [Compound 108, 4-[4-(1-Propylamino-cyclopropyl)-phenylethynyl]-benzoic acid]"
(44),–,(42),"CCCN(CCC)C1(c2ccc(C#Cc3ccc(C(=O)O)cc3)cc2)CC1 [Compound 110, 4-[4-(1-Dipropylamino-cyclopropyl)-phenylethynyl]-benzoic acid]"
(50),(20),(46),"Cc1cc(C#Cc2ccc(C(=O)O)cc2)ccc1C1(OCC(C)(C)C)CC1 [Compound 89, 4-[4-[1-(2,2-Dimethylpropyloxy)-cyclopropyl]-3-methyl-phenylethynyl]-benzoic acid]"
(39),–,(24),"CC(C)OC1(c2ccc(C#Cc3ccc(C(=O)O)cc3)cc2)CC1 [Compound 73, 4-[4-(1-Isopropoxycyclopropyl)-phenylethynyl]-benzoic acid]"
(39),(114),(55),"CCc1cc(C#Cc2ccc(C(=O)O)cc2)ccc1C1(OCc2ccccc2)CC1 [Compound 93, 4-[4-(1-Benzyloxycyclopropyl)-3-ethyl-phenylethynyl]-benzoic acid]"
(37),–,–,"O=C(O)c1ccc(C#Cc2ccc(C3(NCc4ccccc4)CC3)cc2)cc1 [Compound 112, 4-[4-(1-Benzylamino-cyclopropyl)-phenylethynyl]-benzoic acid]"
(6.6),–,(9),"CN(C1CC1)C1CCC(C)(C)c2cc(C#Cc3ccc(C(=O)O)c(F)c3)ccc21 (centres unmarked) [Compound 13, 4-[5-(Cyclopropyl-methyl-amino)-8,8-dimethyl-5 6,7,8-tetrahydro-naphthalene-2-yl-ethynyl]-2-fluoro benzoic acid]"
